In patent publication US20240182445A1 (ONO PHARMACEUTICAL CO., LTD., priority 2019, published 2024) one finds IC50 data, which are given here for twelve compounds.

The first experiment addresses T1, human TREK-1 (Homo sapiens, UniProt O95069).
T1 construct: expressed in transfected cells
T1 sequence (O95069 1-426): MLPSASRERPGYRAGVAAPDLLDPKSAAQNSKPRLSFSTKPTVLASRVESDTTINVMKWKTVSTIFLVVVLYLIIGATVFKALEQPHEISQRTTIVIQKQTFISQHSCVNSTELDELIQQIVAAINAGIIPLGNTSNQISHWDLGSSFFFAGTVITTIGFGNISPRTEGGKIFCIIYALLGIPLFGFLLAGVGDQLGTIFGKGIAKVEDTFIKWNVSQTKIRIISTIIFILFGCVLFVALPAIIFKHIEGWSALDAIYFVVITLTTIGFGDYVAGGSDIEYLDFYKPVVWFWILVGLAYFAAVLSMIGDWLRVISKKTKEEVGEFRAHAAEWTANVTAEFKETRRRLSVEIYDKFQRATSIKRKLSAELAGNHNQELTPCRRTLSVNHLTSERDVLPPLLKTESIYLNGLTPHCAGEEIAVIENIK
Put plainly: TREK-1 Thallium (Tl+) flux assay, Method 1. The format is cell-based. The settings on record: TREK-1 Thallium (Tl+) flux assay, Method 1. The procedure, abridged:
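Readout: Thallos fluorescence ratio, taken 25 s post-thallium relative to the pre-thallium baseline average, then converted to % inhibition. Cells were CHO-K1 stably expressing human TREK-1, dye-loaded and exposed to test compound (vehicle 0.3% DMSO) for 10 min prior to thallium stimulation.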
As for `Cc1cc(OCc2ccccc2)ccc1NC(=O)c1c(Cl)cnn1C1CCN(C(=O)C2CC2)CC1` [Compound 400, N-(4-(benzyloxy)-2-methylphenyl)-4-chloro-1-(1-(cyclopropanecarbonyl)piperidin-4-yl)-1H-pyrazole-5-carboxamide], half-maximal inhibition (IC50) was put at 1780 nM.

The experiment is the same for the next values; noted with them: TREK-1 Thallium (Tl+) flux assay; no *^12 (Method 2) mark on these rows.
In turn, `Cc1cc(C#Cc2ccccc2)cnc1NC(=O)c1c(Cl)cnn1C1CCN(C(=O)C(C)(C)C)CC1` [Compound 220, 4-chloro-N-(3-methyl-5-(phenylethynyl)pyridin-2-yl)-1-(1-pivaloylpiperidin-4-yl)-1H-pyrazole-5-carboxamide] registered a half-maximal inhibitory concentration (IC50) of 340 nM.
The same measure, in the same setting: the same measure for `CO[C@@H](C)Cn1ncc(Cl)c1C(=O)Nc1ncc(C#Cc2ccccc2)cc1C` [Compound 218, (S)-4-chloro-1-(2-methoxypropyl)-N-(3-methyl-5-(phenylethynyl)pyridin-2-yl)-1H-pyrazole-5-carboxamide]: 340 nM; for `CC(C)(C)OC(=O)N1CCC(n2ncc(Cl)c2C(=O)Nc2ncc(C#Cc3ccccc3)cc2F)CC1` [Compound 255, tert-butyl 4-(4-chloro-5-((3-fluoro-5-(phenylethynyl)pyridin-2-yl)carbamoyl)-1H-pyrazol-1-yl)piperidine-1-carboxylate]: 420 nM; for `Cc1cc(C#Cc2ccccc2)cnc1NC(=O)c1c(Cl)cnn1[C@H]1C[C@@H]2CN(C(=O)C(C)C)C[C@@H]2C1` [Compound 317, 4-chloro-N-[3-methyl-5-(phenylethynyl)pyridin-2-yl]-1-[(3aR,5s,6aS)-2-(2-methylpropanoyl)octahydrocyclopenta [c]pyrrol-5-yl]-1H-pyrazole-5-carboxamide]: 610 nM.

Still in this experiment, the particulars now being: TREK-1 Thallium (Tl+) flux assay; values without footnote *12 are Method 1.
On to `Cc1cc(C#Cc2ccccc2)cnc1NC(=O)c1c(Cl)cnn1CC1(C#N)CCN(C(=O)OC(C)(C)C)CC1` [Compound 126, tert-butyl 4-((4-chloro-5-((3-methyl-5-(phenylethynyl)pyridin-2-yl)carbamoyl)-1H-pyrazol-1-yl)methyl)-4-cyanopiperidine-1-carboxylate], for which the IC50 turned out to be 210 nM.
Compound `CC(C)(C)OC(=O)N1CCC(Cn2ncc(Cl)c2C(=O)Nc2ncc(C#Cc3ccccc3)cc2F)CC1` [Compound 142, tert-butyl 4-((4-chloro-5-((3-fluoro-5-(phenylethynyl)pyridin-2-yl)carbamoyl)-1H-pyrazol-1-yl)methyl)piperidine-1-carboxylate] yielded an IC50 of 230 nM.
On the same count and under the same terms, the same measure for `CC(=O)N1CCC(n2ncc(Cl)c2C(=O)Nc2ncc(C#Cc3ccccc3F)cc2C)C(F)C1` (stereo in doubt) [Compound 159, 1-((3R,4R)-1-acetyl-3-fluoropiperidin-4-yl)-4-chloro-N-(5-((2-fluorophenyl)ethynyl)-3-methylpyridin-2-yl)-1H-pyrazole-5-carboxamide]: 250 nM; for `CCNC(=O)N1CCC(n2ncc(Cl)c2C(=O)Nc2ncc(C#Cc3ccccc3)cc2F)CC1` [Compound 158, 4-(4-chloro-5-((3-fluoro-5-(phenylethynyl)pyridin-2-yl)carbamoyl)-1H-pyrazol-1-yl)-N-ethylpiperidine-1-carboxamide]: 250 nM; for `Cc1cc(C#Cc2ccccc2)cnc1NC(=O)c1c(Cl)cnn1C1CCN(C(=O)C2CC2)CC1` [Compound 149, 4-chloro-1-(1-(cyclopropanecarbonyl)piperidin-4-yl)-N-(3-methyl-5-(phenylethynyl)pyridin-2-yl)-1H-pyrazole-5-carboxamide]: 240 nM.
The same measure, in the same setting: as for `Cc1cc(C#Cc2ccccc2)cnc1NC(=O)c1c(Cl)cnn1C[C@H]1CCN(C(=O)C(C)C)C[C@H]1F` [Compound 108, 4-chloro-1-(((3S,4R)-3-fluoro-1-isobutyrylpiperidin-4-yl)methyl)-N-(3-methyl-5-(phenylethynyl)pyridin-2-yl)-1H-pyrazole-5-carboxamide], the figure is 190 nM; as for `CCC(=O)N1CCC(n2ncc(Cl)c2C(=O)Nc2ncc(C#Cc3cccs3)cc2F)CC1` [Compound 67, 4-chloro-N-(3-fluoro-5-(thiophen-2-ylethynyl)pyridin-2-yl)-1-(1-propionylpiperidin-4-yl)-1H-pyrazole-5-carboxamide], 150 nM.

As usually defined, the IC50 is the point on the concentration scale where inhibition reaches its midpoint. Low values mean higher potency, high ones lower potency.
